Experimental data published in the NIST ThermoML archive (doi:10.1021/acs.jced.7b00904).
± gives the expanded uncertainty stated by the source.

Assays:
[1] = refractive index (Na D-line) (dimensionless); wn = mass fraction of the nth substance listed; settings: 101.3 kPa, Liquid, Standard Abbe refractometry
[2] = wn = mass fraction of the nth substance listed; settings: 295 K, w2 = 0

[I-].[Na+] [sodium iodide] + O
refractive index, [1]
Settings	296 K	298 K
w1 = 0.332	1.3939 ± 0.00059	–
w1 = 0.359	1.40055 ± 0.00059	–
w1 = 0.374	1.4045 ± 0.00059	–
w1 = 0.39	1.40905 ± 0.00059	–
w1 = 0.408	1.41365 ± 0.0007	–
w1 = 0.427	1.4193 ± 0.00061	–
w1 = 0.449	1.426 ± 0.0006	–
w1 = 0.46	1.4295 ± 0.00059	–
w1 = 0.472	1.43335 ± 0.00059	–
w1 = 0.485	1.4376 ± 0.00058	–
w1 = 0.498	1.4421 ± 0.00058	1.4428 ± 0.00058
w1 = 0.512	–	1.44745 ± 0.00059
w1 = 0.513	1.44705 ± 0.00058	–
w1 = 0.518	–	1.44985 ± 0.00059
w1 = 0.524	–	1.45195 ± 0.00059
w1 = 0.528	1.4523 ± 0.00059	–
w1 = 0.53	–	1.45405 ± 0.00059
w1 = 0.536	–	1.45645 ± 0.00059
w1 = 0.543	–	1.45915 ± 0.0006
w1 = 0.544	1.4581 ± 0.00059	–
w1 = 0.549	–	1.4615 ± 0.0006
w1 = 0.556	–	1.46395 ± 0.00058
w1 = 0.56	1.4648 ± 0.00059	–
w1 = 0.563	–	1.4666 ± 0.00058
w1 = 0.57	–	1.4694 ± 0.00059
w1 = 0.577	–	1.4721 ± 0.00058
w1 = 0.579	1.472 ± 0.00058	–
w1 = 0.585	–	1.4744 ± 0.00058
w1 = 0.598	1.4797 ± 0.00058	–

O [water] + N#C[S-].[K+]
Settings	surface tension liquid-gas [mN/m]
[2], Wilhelmi plate	72.28 ± 0.4

[2], 101.3 kPa, Liquid
Settings	mass density [kg/m3]	viscosity [mPa·s]
Buoyancy - hydrostatic balance	999 ± 6	–
Concentric cylinders viscometry	–	0.975 ± 0.07

[1], w2 = 0
Settings	refractive index
293 K	1.3333 ± 0.00058
298 K	1.3326 ± 0.00058
303 K	1.3321 ± 0.00058
308 K	1.33165 ± 0.00058
313 K	1.33085 ± 0.00058
